According to US20070037788A1, “Tricyclic steroid hormone nuclear receptor modulators” (Eli Lilly and Company, priority 2003, published 2007):

target: T1, human MR (Homo sapiens, UniProt P08235); assay: Mineralocorticoid Receptor Binding Assay (Method 1); settings: [3H]-aldosterone
T1 construct: The full length human MR gene is cloned from a human kidney or human brain cDNA library; made in house; host or cells: SF9 insect cells (baculovirus)
T1 sequence (P08235 1-984): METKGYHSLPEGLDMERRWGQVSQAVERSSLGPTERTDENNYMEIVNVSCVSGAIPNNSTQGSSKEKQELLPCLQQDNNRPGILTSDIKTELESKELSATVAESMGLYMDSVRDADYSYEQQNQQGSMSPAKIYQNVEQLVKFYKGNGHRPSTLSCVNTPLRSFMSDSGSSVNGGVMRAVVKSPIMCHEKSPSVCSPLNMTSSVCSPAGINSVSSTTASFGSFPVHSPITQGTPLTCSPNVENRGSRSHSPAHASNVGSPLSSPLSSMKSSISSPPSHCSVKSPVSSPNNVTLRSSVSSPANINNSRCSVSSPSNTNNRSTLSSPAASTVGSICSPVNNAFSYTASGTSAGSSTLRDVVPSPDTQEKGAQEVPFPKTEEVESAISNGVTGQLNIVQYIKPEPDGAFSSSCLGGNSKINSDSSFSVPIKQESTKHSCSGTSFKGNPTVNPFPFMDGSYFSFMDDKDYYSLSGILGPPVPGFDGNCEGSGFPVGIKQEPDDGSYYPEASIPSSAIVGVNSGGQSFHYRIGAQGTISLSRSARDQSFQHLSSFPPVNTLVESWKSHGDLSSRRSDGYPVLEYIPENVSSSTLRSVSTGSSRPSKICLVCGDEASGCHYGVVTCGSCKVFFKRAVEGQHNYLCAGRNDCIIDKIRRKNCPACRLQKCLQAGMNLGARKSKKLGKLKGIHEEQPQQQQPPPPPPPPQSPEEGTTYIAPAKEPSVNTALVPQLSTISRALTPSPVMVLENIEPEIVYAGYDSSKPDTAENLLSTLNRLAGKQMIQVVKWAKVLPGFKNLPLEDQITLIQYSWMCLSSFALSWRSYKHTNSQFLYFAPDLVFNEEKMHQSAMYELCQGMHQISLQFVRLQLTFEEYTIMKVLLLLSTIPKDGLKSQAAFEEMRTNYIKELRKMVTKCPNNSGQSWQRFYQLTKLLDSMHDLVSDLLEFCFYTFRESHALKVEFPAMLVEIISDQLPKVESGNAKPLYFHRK
Experimental: The full length human MR gene is cloned from a human kidney or human brain cDNA library. Briefly, using synthetic oligonucleotide primers (Eli Lilly and Company, Indianapolis) directed to nucleotides 20-54 and 3700-3666 of the human MR, polymerase chain reaction (PCR) is performed under standard conditions using a human cDNA library. The PCR reaction is performed in a final volume of 50 μl containing about 1 μl of a 50× stock solution of polymerase; about 1 μl of a 50× stock solution of DNTP; about 5 μl of an appropriate PCR buffer; about 1 μl of each primer; about 5 μl of a H. kidney or H. brain cDNA library; and about 36 μl of water. The reaction is allowed to denature for about 30 seconds at 95 degrees Celsius, anneal for about 30 seconds at 55 degrees Celsius, and extend for about 5 minutes at 72 degrees Celsius, the sequence being repeated for a total of about 35 cycles. The desired PCR product (3.68 Kb) is confirmed by gel electrophoresis and subsequently cut from the gel and stored at about −20 degrees Celsius until extraction. To extract the cDNA product from the agarose gel, the QIAEX II Gel Extraction protocol (QIAGEN, Inc.) is employed according to the manufacturer's instructions. Following extraction, the MR cDNA is cloned into an appropriate cloning vector (Zero Blunt TOPO PCR Cloning Kit (Invitrogen, Inc.) and a pAcHLT-baculovirus transfer vector (B.D./Pharminogen), then expressed in SF9 insect cells, essentially according to manufacturer's instructions. Sf9 cells are grown at a scale where gram quantity cell pellets are obtained for subsequent use in the MR binding assay. Harvested cell pellets are lysed by repeated freeze-thaw cycles (about 4) in a suitable lysis buffer then centrifuged at about 1×10^3 G (with the supernatant being saved for future assays).
MR binding assays are performed in a final total volume of about 250 μl containing about 20-25 μg of protein and 0.5 nM of [^3H]-aldosterone plus varying concentrations of test compound or vehicle. The assay binding buffer consists of 30 mM sodium molybdate, 30 mM of TRIS-HCl, 5 mM sodium phosphate, 5 mM sodium pyrophosphate, and about 10% glycerol, pH=7.5.
Briefly, assays are prepared at RT in 96-well Falcon 3072 plates, each well containing 210 μl of binding buffer, 10 μl of [^3H]-aldosterone, 10 μl of test compound/vehicle, and 20 μl of the resuspended receptor protein extract. Incubations are carried out at 4 degrees Celsius with shaking for about 16 hours. 200 μl aliquots of each incubation are filtered onto Millipore HA 0.45 micron 96-well filter plates, pre-moistened with cold 30 mM TRIS-HCl. The filter plates are suctioned dry with vacuum and immediately washed 3× with cold 30 mM TRIS-HCl. The plates are then punched out and the amount of receptor-ligand complex is determined by liquid scintillation counting using 4 ml of Ready Protein Plus™ liquid scintillation cocktail.

Ki, < 500 nM:
CC(C)(CN1CCOCC1)n1c(=O)[nH]c2cc(/C=C3\c4ccccc4COc4cc(F)ccc43)ccc21 [Example 1, 1-(1,1-Dimethyl-2-morpholin-4-yl-ethyl)-5-(3-fluoro-6H-dibenzo[b,e]oxepin-11-ylidenemethyl)-1,3-dihydro-benzoimidazol-2-one, E isomer]
O=c1[nH]c2cc(/C=C3/c4ccc(F)cc4OCc4c(F)cccc43)ccc2n1CCN1CCNCC1 [Example 43]
O=c1[nH]c2cc(/C=C3\c4ccccc4COc4cc(F)ccc43)ccc2n1C1CCNC1 (centres unmarked) [Example 16]
CC(C)(CN1CCOCC1)n1c(=O)[nH]c2cc(/C=C3\c4ccc(F)cc4COc4cc(F)ccc43)ccc21 [Example 24]
O=c1[nH]c2cc(/C=C3/c4ccc(F)cc4OCc4c(F)cccc43)ccc2n1[C@H]1CCNC1 [Example 37]
